Test results taken from PubChem BioAssay AID330 (DTP/NCI, 2004).
Several values for one entry are separate records, joined by “and”; a condition that tells them apart may be missing. Equal values may be shown once. Inconclusive results and toxic doses are left out. Rule for the calls: active = survival T/C of 150% or more; inactive = T/C below 125% in these data.

Tested on: P388 leukemia ip, CD2F1 mice, survival T/C
Test: NCI In Vivo Anticancer Drug Screen. Data for tumor model P388 Leukemia (intraperitoneal) in CD2F1 (CDF1) mice
Conditions: endpoint: median survival time, higher = longer survival
In short: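 Mice carrying the transplanted tumor received test compound or vehicle. Survival was recorded in each group, and the value is the treated-group measurement divided by that of the vehicle-treated control group.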

[1] = dose: 25.0 mg/kg/injection, schedule: Q04DX003 (ip), vehicle: saline
[2] = dose: 50.0 mg/kg/injection, schedule: Q04DX003 (ip), vehicle: saline
[3] = dose: 50.0 mg/kg/injection, schedule: Q01DX009 (ip), vehicle: saline with Tween-80
[4] = dose: 200.0 mg/kg/injection, schedule: Q01DX009 (ip), vehicle: saline with Tween-80
[5] = dose: 60.0 mg/kg/injection, schedule: Q01DX005 (ip), vehicle: saline with Tween-80
[6] = dose: 120.0 mg/kg/injection, schedule: Q01DX005 (ip), vehicle: saline with Tween-80
[7] = dose: 240.0 mg/kg/injection, schedule: Q01DX005 (ip), vehicle: saline with Tween-80

Measured: T/C

O=C(O)C(O)CBr (stereo not drawn)
inactive: dose: 12.5 mg/kg/injection, schedule: Q01DX009 (ip), vehicle: saline 100 % of control | dose: 25.0 mg/kg/injection, schedule: Q01DX009 (ip), vehicle: saline 95 % of control | [1] 91 % of control | dose: 50.0 mg/kg/injection, schedule: Q01DX009 (ip), vehicle: saline 95 % of control | [2] 87 % of control

O=C1C=CC(=O)N1C(=O)NCNC(=O)N1C(=O)C=CC1=O
inactive: dose: 25.0 mg/kg/injection, schedule: Q01DX005 (ip), vehicle: saline with Tween-80 99 % of control and 107 % of control | dose: 50.0 mg/kg/injection, schedule: Q01DX005 (ip), vehicle: saline with Tween-80 103 % of control (2×) and 106 % of control | dose: 100.0 mg/kg/injection, schedule: Q01DX005 (ip), vehicle: saline with Tween-80 103 % of control and 121 % of control

Cc1ccccc1NC(CCN1CCCCC1)=NC(C)(C)C
inactive: [3] 111 % of control | dose: 100.0 mg/kg/injection, schedule: Q01DX009 (ip), vehicle: saline with Tween-80 103 % of control | [4] 100 % of control

O=C(O)c1ccc(N2C(=O)CC3(CCCCC3)C2=O)cc1O
inactive: dose: 100.0 mg/kg/injection, schedule: Q04DX003 (ip), vehicle: Klucel (hydroxypropylcellulose) (HPC) 101 % of control | dose: 200.0 mg/kg/injection, schedule: Q04DX003 (ip), vehicle: Klucel (hydroxypropylcellulose) (HPC) 102 % of control | dose: 400.0 mg/kg/injection, schedule: Q04DX003 (ip), vehicle: Klucel (hydroxypropylcellulose) (HPC) 88 % of control

CC(=O)Oc1cc2c(cc1OC(C)=O)OCC(c1ccccc1)C2 (stereo not drawn)
inactive: [5] 98 % of control | [6] 98 % of control | [7] 97 % of control

CSC(SC)(SC)c1cc(C)no1
inactive: [5] 111 % of control | [6] 102 % of control | [7] 104 % of control

O=C1C(c2cnccn2)=C(O)c2ccccc21
inactive: dose: 15.0 mg/kg/injection, schedule: Q01DX005 (ip), vehicle: saline with Tween-80 91 % of control | dose: 30.0 mg/kg/injection, schedule: Q01DX005 (ip), vehicle: saline with Tween-80 97 % of control | [5] 100 % of control and 90 % of control

CCOC(=O)CNCc1cccnc1
inactive: dose: 12.5 mg/kg/injection, schedule: Q04DX003 (ip), vehicle: saline 103 % of control | [1] 106 % of control and 94 % of control | [2] 100 % of control and 103 % of control | dose: 100.0 mg/kg/injection, schedule: Q04DX003 (ip), vehicle: saline 104 % of control and 94 % of control | dose: 200.0 mg/kg/injection, schedule: Q04DX003 (ip), vehicle: saline 97 % of control

Cc1ccc2ncc([N+](=O)[O-])n2c1
inactive: dose: 50.0 mg/kg/injection, schedule: Q01DX001 (ip), vehicle: saline with Tween-80 94 % of control | dose: 100.0 mg/kg/injection, schedule: Q01DX001 (ip), vehicle: saline with Tween-80 97 % of control | dose: 200.0 mg/kg/injection, schedule: Q01DX001 (ip), vehicle: saline with Tween-80 90 % of control | dose: 400.0 mg/kg/injection, schedule: Q01DX001 (ip), vehicle: saline with Tween-80 94 % of control

O=C(C/[N+]([O-])=C/c1ccccc1)OCc1ccccc1
inactive: dose: 12.5 mg/kg/injection, schedule: Q01DX009 (ip), vehicle: other 112 % of control | dose: 25.0 mg/kg/injection, schedule: Q01DX009 (ip), vehicle: other 112 % of control | dose: 50.0 mg/kg/injection, schedule: Q01DX009 (ip), vehicle: other 95 % of control | dose: 100.0 mg/kg/injection, schedule: Q01DX009 (ip), vehicle: other 88 % of control | dose: 200.0 mg/kg/injection, schedule: Q01DX009 (ip), vehicle: other 104 % of control

CCCCC1(CCN(CC)c2ccccc2)C(=O)NC(=O)NC1=O
inactive: dose: 50.0 mg/kg/injection, schedule: Q01DX005 (ip), vehicle: Klucel (hydroxypropylcellulose) (HPC) 101 % of control | dose: 100.0 mg/kg/injection, schedule: Q01DX005 (ip), vehicle: Klucel (hydroxypropylcellulose) (HPC) 99 % of control | dose: 200.0 mg/kg/injection, schedule: Q01DX005 (ip), vehicle: Klucel (hydroxypropylcellulose) (HPC) 99 % of control

O=C(O)CC(=O)c1ccccc1
inactive: dose: 25.0 mg/kg/injection, schedule: Q01DX009 (ip), vehicle: saline with Tween-80 102 % of control | [3] 105 % of control | [4] 89 % of control
